Laboratory results as given in US4786648A, “O-substituted tetrahydropyridine oxime cholinergic agents” (Warner-Lambert Company, priority 1987, dated 1988).
Where two headings read alike, the source gives them in different places.

Key:
[1] = system: age-related cognitive deficits; settings: H. P. Davis, et al (1983); cited from earlier work
[2] = target: central muscarinic binding site; assay: RCMD screening assay (inhibition of radio-labeled cis-methyldioxolane binding, rat cerebral cortex tissue)
Protocol: Similarly, in the RCMD screening assay, described more fully by T. W. Vickeroy, et al, J. Pharmacol. Exp. Ther., 229 (3): 747 (1984), rat cerebral cortex tissue was treated with radio-labeled cis-methyldioxolane,a known muscarinic binding site agonist. The concentrations of test compounds required to inhibit 50% of the binding of this muscarinic agonist were then determined.

[3] = target: central muscarinic binding site; settings: radio-labeled quinuclidinyl benzilate (antagonist), rat cerebral cortex
[4] = system: laboratory rats given scopolamine; assay: SIS, scopolamine induced swimming test; format: in vivo, rat; settings: for minimal effective dose: Rattus norvegicus, sc, Tables 3 and 4, Subcutaneous, five minute test period, read-out: Minimal Effective Dose for Reversal of Scopolamine-Induced Swimming Hyperactivity; for reversal of scopolamine-induced swimming hyperactivity: rats given scopolamine
Protocol: In a second screening assay, designated SIS, the scopolamine induced swimming test, the ability of representative compounds of the present invention to reverse the hyperactive swimming behavior of laboratory rats given scopolamine was assessed. In this test, untreated rats will generally swim between 20 to 30 meters during a five minute test period. […] This swimming hyperactivity can be reversed by administration of physostigmine or the cholinergic agonist, arecoline. The effect of scopolamine is centrally mediated; the ability of a test compound to reverse the hyperactive swimming behavior induced by scopolamine is thus a measure of the central cholinergic activity of the compound.

[5] = system: patients clinically diagnosed as having presenile primary degenerative dementia; settings: double blind study, Christie, et al (1981); cited from earlier work
[6] = system: Aged humans and nonhuman primates with decreased cognition; settings: acetylcholinesterase inhibitor treatment; cited from earlier work
[7] = Table 1, radio-labeled cis-methyldioxolane (agonist)
[8] = Table 2, radio-labeled cis-methyldioxolane (agonist)

SMILES	IC50 [2, 7]	IC50 ([3]; Table 1)	minimal effective dose ([4]; scopolamine 0.1 mg/kg, rats)	further results
Nc1ccncc1N [3,4-diaminopyridine]	–	–	–	effect on age-related cognitive deficits [1]: ameliorate age-related cognitive deficits
CCC(=NOC)C1=CCCNC1 [Example 2, 1-(1,2,5,6-Tetrahydro-3-pyridinyl)-1-propanone, O-Methyloxime]	290 nM	9500 nM	–	–
CON=CC1=CCCN(C)C1 [Example 3, 1,2,5,6-Tetrahydro-1-methyl-3-pyridinecarboxaldehyde O-Methyloxime]	2 nM	1800 nM	3.2 mg/kg	–
CON=CC1=CCCNC1 [Example 4, 1,2,5,6-Tetrahydro-3-pyridinecarboxaldehyde, O-Methyl oxime]	10 nM	7100 nM	3.2 mg/kg	–
CCON=CC1=CCCN(C)C1 [Example 6, 1,2,5,6-Tetrahydro-1-methyl-3-pyridinecarboxaldehyde, O-Ethyloxime]	28 nM	10000 nM	–	–
CCON=CC1=CCCNC1 [Example 7, 1,2,5,6-Tetrahydro-3-pyridinecarboxaldehyde, O-ethyloxime]	42 nM	1000 nM	–	–
CON=C(C)C1=CCCNC1 [Example 8, 1-(1,2,5,6-Tetrahydro-3-pyridinyl)ethanone, O-methyloxime]	28 nM	5800 nM	–	–
CON=C(C)C1=CCNCC1 [Example 13, 1-(1,2,3,6-Tetrahydro-4-pyridinyl)ethanone, O-Methyloxime]	–	–	10 mg/kg	–
CON=CC1=CCN(C)CC1 [Example 14, 1,2,3,6-Tetrahydro-1-methyl-4-pyridinecarboxaldehyde, O-Methyloxime]	–	–	32 mg/kg	IC50 [2, 8]: > 0.1 nM; IC50 ([3]; Table 2): > 1 nM
CON=CC1=CCNCC1 [Example 15, 1,2,3,6-Tetrahydro-4-pyridinecarboxaldehyde, O-Methyloxime]	–	–	–	IC50 [2, 8]: > 0.1 nM; IC50 ([3]; Table 2): < 1 nM
COC(=O)C1=CCCN(C)C1 [arecoline, methyl ester of 1,2,5,6-tetrahydro-1-methyl-3-pyridinecarboxylic acid, reference compound]	–	–	–	improvement in a test of picture recognition [5]: Significant improvement; reversal of scopolamine-induced swimming hyperactivity [4]: reversed
CNC(=O)Oc1ccc2c(c1)[C@]1(C)CCN(C)[C@@H]1N2C [physostigmine, reference compound]	–	–	–	reversal of scopolamine-induced swimming hyperactivity [4]: reversed; memory in aged humans and nonhuman primates with decreased cognition [6]: improved memory
CN1[C@@H]2C[C@@H](OC(=O)[C@H](CO)c3ccccc3)C[C@H]1[C@@H]1O[C@@H]12 [scopolamine, reference compound]	–	–	–	increase of swimming distance above baseline values ([4]; scopolamine 0.1 mg/kg, rats): 75-125%
